Test system: KRAS patient-derived spheroids with HUVEC/MSC, viability
Assay: Anticancer human tumor 323965-272-R-J2-PDC patient-derived pancreatic carcinoma cell line growth inhibition [KRAS2]
Conditions: second compound 1 µM; first compound 0.0316 µM; active compounds read low
Text: Multicellular complex tumor spheroid response to RAS pathway inhibitors in combination with a targeted agents in patient-derived cell lines with oncogenic KRAS variants from multiple cancer types
A high-throughput screen of multi-cell type tumor spheroids was designed to identify active combinations of targeted small molecules and KRAS pathway inhibitors. Complex spheroids include a stromal component modeled by human endothelial cells (HUVEC) and fibroblasts modeled by human mesenchymal stem cells (MSCs). The concentration ranges selected for each drug and investigational agent were based upon clinically achievable concentrations if the clinical Cmax of the agent was known.
Compounds. The drugs and investigational agents: BI-3406 (NSC825286), BAY-293 (NSC824723), batoprotafib (TNO155; NSC825523), sotorasib (AMG 510; NSC818433), MRTX1257 (NSC819558), elimusertib (BAY 1895344; NSC800525), molibresib (GSK525762; NSC774829), temuterkib (LY3214996; NSC803410), venetoclax (NSC766270), alisertib (NSC759677), olaparib (NSC753686), talazoparib (NSC767125), erdafitinib (NSC781556), ipatasertib (NSC767898), cabozantinib (NSC761068), nintedanib (NSC756659), abemaciclib (NSC768073), docetaxel (NSC628503), trametinib (NSC758246), and sapanisertib (NSC764658) were obtained from the National Cancer Institute (NCI) Developmental Therapeutics Program Chemical Repository. The FDA-approved anticancer drug set is available from the Developmental Therapeutics Program. […] The stock solutions were prepared in dimethyl sulfoxide (DMSO, Sigma-Aldrich, St. Louis, MO, cat. D2650) at 800-fold the tested concentration and stored at -70 degrees C prior to their use. All drugs and investigational agents were tested over a range starting from a high concentration at or near the clinical Cmax and decreasing in half-log increments. If the clinical Cmax for an agent had not been determined, the highest concentration tested was 10 microM.
Cell Culture. All cells were maintained in an incubator at 37 degrees C and 5% CO2 with 95% humidity. The PDC lines were cultured according to standard operating procedures established by the NCI PDMR (https://pdmr.cancer.gov/sops/default.htm). Briefly, all PDCs were thawed and cultured in Matrigel-coated flasks prepared with a working solution of 1X Ham's F-12 nutrient mix, without supplementation (Invitrogen, Waltham, MA, cat. 11765054), 100 U/mL penicillin-streptomycin (Invitrogen, cat. 15140122), and 2.5% Matrigel (Corning Inc., Corning, NY, cat. 354248) for the first three passages. All PDCs were cultured in complete DMEM/F-12 media containing advanced DMEM/F-12 (Invitrogen, cat. 12634028), 4.9% defined fetal bovine serum, heat inactivated (HyClone Laboratories Inc., Logan, UT, cat. SH30070.03HI), 389 ng/mL hydrocortisone (Sigma-Aldrich, cat. H4001), 9.7 ng/mL human EGF recombinant protein (Invitrogen, cat. PHG0313), 23.4 microg/mL adenine (Sigma-Aldrich, cat. A2786), 97.3 U/mL penicillin-streptomycin (Invitrogen, cat. 15140122), 1.9 mM L-glutamine (Invitrogen, cat. 25030081), and 9.7 microM Y-27632 dihydrochloride (Tocris Bioscience, Bristol, United Kingdom, cat. 1254). The PDCs were cultured in complete DMEM/F12 media without 9.7 microM Y-27632 dihydrochloride for at least two passages prior to the screen. The established cell line HOP-62 was cultured in RPMI 1640 medium, HEPES (Invitrogen, cat. 22400105) with 10% defined fetal bovine serum (HyClone Laboratories Inc., cat. SH30070.03) and 2 mM L-glutamine (Invitrogen, cat. 25030081). The pooled donor HUVEC were cultured in endothelial cell growth medium 2 (PromoCell, Heidelberg, Germany, cat. C-22011) and the hMSC were cultured in mesenchymal stem cell growth medium 2 (PromoCell, cat. C-28009). For all experiments, HUVEC and hMSC were used at passages </=5, while the malignant cell lines were used at passages </=15. […]
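Note: spheroids exposed to agents for 7 days; 100% = DMSO vehicle control viability.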

Structure (SMILES)	viability, T/C [%]
CC1OCC2(CCN(c3cnc(Sc4ccnc(N)c4Cl)c(N)n3)CC2)C1N (stereo not given) + C=CC(=O)N1CCN(c2nc(=O)n(-c3c(C)ccnc3C(C)C)c3nc(-c4c(O)cccc4F)c(F)cc23)C(C)C1	46.9
CCNC(=O)CC1N=C(c2ccc(Cl)cc2)c2cc(OC)ccc2-n2c(C)nnc21 (stereo not given) + C=CC(=O)N1CCN(c2nc(=O)n(-c3c(C)ccnc3C(C)C)c3nc(-c4c(O)cccc4F)c(F)cc23)C(C)C1	51.3
Cn1nccc1Nc1nccc(-c2cc3c(s2)C(C)(C)N(CCN2CCOCC2)C3=O)n1 + C=CC(=O)N1CCN(c2nc(=O)n(-c3c(C)ccnc3C(C)C)c3nc(-c4c(O)cccc4F)c(F)cc23)C(C)C1	53.8

Same assay, conditions: second compound 1 µM; first compound 0.1 µM; active compounds read low

Structure (SMILES)	viability, T/C [%]
CC1COCCN1c1cc(-c2ccnn2C)c2ccnc(-c3ccn[nH]3)c2n1 (stereo not given) + C=CC(=O)N1CCN(c2nc(=O)n(-c3c(C)ccnc3C(C)C)c3nc(-c4c(O)cccc4F)c(F)cc23)C(C)C1	18.9
CC1OCC2(CCN(c3cnc(Sc4ccnc(N)c4Cl)c(N)n3)CC2)C1N (stereo not given) + C=CC(=O)N1CCN(c2nc(=O)n(-c3c(C)ccnc3C(C)C)c3nc(-c4c(O)cccc4F)c(F)cc23)C(C)C1	30.2
CCNC(=O)CC1N=C(c2ccc(Cl)cc2)c2cc(OC)ccc2-n2c(C)nnc21 (stereo not given) + C=CC(=O)N1CCN(c2nc(=O)n(-c3c(C)ccnc3C(C)C)c3nc(-c4c(O)cccc4F)c(F)cc23)C(C)C1	49.2
Cn1nccc1Nc1nccc(-c2cc3c(s2)C(C)(C)N(CCN2CCOCC2)C3=O)n1 + C=CC(=O)N1CCN(c2nc(=O)n(-c3c(C)ccnc3C(C)C)c3nc(-c4c(O)cccc4F)c(F)cc23)C(C)C1	50

Same assay, conditions: second compound 1 µM; first compound 0.316 µM; active compounds read low

Structure (SMILES)	viability, T/C [%]
CC1COCCN1c1cc(-c2ccnn2C)c2ccnc(-c3ccn[nH]3)c2n1 (stereo not given) + C=CC(=O)N1CCN(c2nc(=O)n(-c3c(C)ccnc3C(C)C)c3nc(-c4c(O)cccc4F)c(F)cc23)C(C)C1	14.5
CC1OCC2(CCN(c3cnc(Sc4ccnc(N)c4Cl)c(N)n3)CC2)C1N (stereo not given) + C=CC(=O)N1CCN(c2nc(=O)n(-c3c(C)ccnc3C(C)C)c3nc(-c4c(O)cccc4F)c(F)cc23)C(C)C1	24.1
CCNC(=O)CC1N=C(c2ccc(Cl)cc2)c2cc(OC)ccc2-n2c(C)nnc21 (stereo not given) + C=CC(=O)N1CCN(c2nc(=O)n(-c3c(C)ccnc3C(C)C)c3nc(-c4c(O)cccc4F)c(F)cc23)C(C)C1	40
Cn1nccc1Nc1nccc(-c2cc3c(s2)C(C)(C)N(CCN2CCOCC2)C3=O)n1 + C=CC(=O)N1CCN(c2nc(=O)n(-c3c(C)ccnc3C(C)C)c3nc(-c4c(O)cccc4F)c(F)cc23)C(C)C1	45.1

Same assay, conditions: second compound 1 µM; first compound 1 µM; active compounds read low

Structure (SMILES)	viability, T/C [%]
CC1COCCN1c1cc(-c2ccnn2C)c2ccnc(-c3ccn[nH]3)c2n1 (stereo not given) + C=CC(=O)N1CCN(c2nc(=O)n(-c3c(C)ccnc3C(C)C)c3nc(-c4c(O)cccc4F)c(F)cc23)C(C)C1	14.1
CC1OCC2(CCN(c3cnc(Sc4ccnc(N)c4Cl)c(N)n3)CC2)C1N (stereo not given) + C=CC(=O)N1CCN(c2nc(=O)n(-c3c(C)ccnc3C(C)C)c3nc(-c4c(O)cccc4F)c(F)cc23)C(C)C1	17.6
CCNC(=O)CC1N=C(c2ccc(Cl)cc2)c2cc(OC)ccc2-n2c(C)nnc21 (stereo not given) + C=CC(=O)N1CCN(c2nc(=O)n(-c3c(C)ccnc3C(C)C)c3nc(-c4c(O)cccc4F)c(F)cc23)C(C)C1	32.5
Cn1nccc1Nc1nccc(-c2cc3c(s2)C(C)(C)N(CCN2CCOCC2)C3=O)n1 + C=CC(=O)N1CCN(c2nc(=O)n(-c3c(C)ccnc3C(C)C)c3nc(-c4c(O)cccc4F)c(F)cc23)C(C)C1	43.2

Same assay, conditions: second compound 1 µM; first compound 3.16 µM; active compounds read low

Structure (SMILES)	viability, T/C [%]
CC1COCCN1c1cc(-c2ccnn2C)c2ccnc(-c3ccn[nH]3)c2n1 (stereo not given) + C=CC(=O)N1CCN(c2nc(=O)n(-c3c(C)ccnc3C(C)C)c3nc(-c4c(O)cccc4F)c(F)cc23)C(C)C1	13.5
CC1OCC2(CCN(c3cnc(Sc4ccnc(N)c4Cl)c(N)n3)CC2)C1N (stereo not given) + C=CC(=O)N1CCN(c2nc(=O)n(-c3c(C)ccnc3C(C)C)c3nc(-c4c(O)cccc4F)c(F)cc23)C(C)C1	15
CCNC(=O)CC1N=C(c2ccc(Cl)cc2)c2cc(OC)ccc2-n2c(C)nnc21 (stereo not given) + C=CC(=O)N1CCN(c2nc(=O)n(-c3c(C)ccnc3C(C)C)c3nc(-c4c(O)cccc4F)c(F)cc23)C(C)C1	27.6
Cn1nccc1Nc1nccc(-c2cc3c(s2)C(C)(C)N(CCN2CCOCC2)C3=O)n1 + C=CC(=O)N1CCN(c2nc(=O)n(-c3c(C)ccnc3C(C)C)c3nc(-c4c(O)cccc4F)c(F)cc23)C(C)C1	43.9

Same assay, conditions: second compound 1 µM; first compound 10 µM; active compounds read low

Structure (SMILES)	viability, T/C [%]
CC1OCC2(CCN(c3cnc(Sc4ccnc(N)c4Cl)c(N)n3)CC2)C1N (stereo not given) + C=CC(=O)N1CCN(c2nc(=O)n(-c3c(C)ccnc3C(C)C)c3nc(-c4c(O)cccc4F)c(F)cc23)C(C)C1	12.1
CCNC(=O)CC1N=C(c2ccc(Cl)cc2)c2cc(OC)ccc2-n2c(C)nnc21 (stereo not given) + C=CC(=O)N1CCN(c2nc(=O)n(-c3c(C)ccnc3C(C)C)c3nc(-c4c(O)cccc4F)c(F)cc23)C(C)C1	30.1
Cn1nccc1Nc1nccc(-c2cc3c(s2)C(C)(C)N(CCN2CCOCC2)C3=O)n1 + C=CC(=O)N1CCN(c2nc(=O)n(-c3c(C)ccnc3C(C)C)c3nc(-c4c(O)cccc4F)c(F)cc23)C(C)C1	60.7

Same assay, conditions: second compound 3.16 µM; first compound 0.01 µM; active compounds read low

Structure (SMILES)	viability, T/C [%]
CC1COCCN1c1cc(-c2ccnn2C)c2ccnc(-c3ccn[nH]3)c2n1 (stereo not given) + C=CC(=O)N1CCN(c2nc(=O)n(-c3c(C)ccnc3C(C)C)c3nc(-c4c(O)cccc4F)c(F)cc23)C(C)C1	40.6

Same assay, conditions: second compound 3.16 µM; first compound 0.0316 µM; active compounds read low

Structure (SMILES)	viability, T/C [%]
CC1COCCN1c1cc(-c2ccnn2C)c2ccnc(-c3ccn[nH]3)c2n1 (stereo not given) + C=CC(=O)N1CCN(c2nc(=O)n(-c3c(C)ccnc3C(C)C)c3nc(-c4c(O)cccc4F)c(F)cc23)C(C)C1	22.8
CC1OCC2(CCN(c3cnc(Sc4ccnc(N)c4Cl)c(N)n3)CC2)C1N (stereo not given) + C=CC(=O)N1CCN(c2nc(=O)n(-c3c(C)ccnc3C(C)C)c3nc(-c4c(O)cccc4F)c(F)cc23)C(C)C1	45.2
CCNC(=O)CC1N=C(c2ccc(Cl)cc2)c2cc(OC)ccc2-n2c(C)nnc21 (stereo not given) + C=CC(=O)N1CCN(c2nc(=O)n(-c3c(C)ccnc3C(C)C)c3nc(-c4c(O)cccc4F)c(F)cc23)C(C)C1	57.1
Cn1nccc1Nc1nccc(-c2cc3c(s2)C(C)(C)N(CCN2CCOCC2)C3=O)n1 + C=CC(=O)N1CCN(c2nc(=O)n(-c3c(C)ccnc3C(C)C)c3nc(-c4c(O)cccc4F)c(F)cc23)C(C)C1	51.5

Same assay, conditions: second compound 3.16 µM; first compound 0.1 µM; active compounds read low

Structure (SMILES)	viability, T/C [%]
CC1COCCN1c1cc(-c2ccnn2C)c2ccnc(-c3ccn[nH]3)c2n1 (stereo not given) + C=CC(=O)N1CCN(c2nc(=O)n(-c3c(C)ccnc3C(C)C)c3nc(-c4c(O)cccc4F)c(F)cc23)C(C)C1	15.5
CC1OCC2(CCN(c3cnc(Sc4ccnc(N)c4Cl)c(N)n3)CC2)C1N (stereo not given) + C=CC(=O)N1CCN(c2nc(=O)n(-c3c(C)ccnc3C(C)C)c3nc(-c4c(O)cccc4F)c(F)cc23)C(C)C1	38.7
CCNC(=O)CC1N=C(c2ccc(Cl)cc2)c2cc(OC)ccc2-n2c(C)nnc21 (stereo not given) + C=CC(=O)N1CCN(c2nc(=O)n(-c3c(C)ccnc3C(C)C)c3nc(-c4c(O)cccc4F)c(F)cc23)C(C)C1	51.9
Cn1nccc1Nc1nccc(-c2cc3c(s2)C(C)(C)N(CCN2CCOCC2)C3=O)n1 + C=CC(=O)N1CCN(c2nc(=O)n(-c3c(C)ccnc3C(C)C)c3nc(-c4c(O)cccc4F)c(F)cc23)C(C)C1	53

Same assay, conditions: second compound 3.16 µM; first compound 0.316 µM; active compounds read low

Structure (SMILES)	viability, T/C [%]
CC1COCCN1c1cc(-c2ccnn2C)c2ccnc(-c3ccn[nH]3)c2n1 (stereo not given) + C=CC(=O)N1CCN(c2nc(=O)n(-c3c(C)ccnc3C(C)C)c3nc(-c4c(O)cccc4F)c(F)cc23)C(C)C1	14.1
CC1OCC2(CCN(c3cnc(Sc4ccnc(N)c4Cl)c(N)n3)CC2)C1N (stereo not given) + C=CC(=O)N1CCN(c2nc(=O)n(-c3c(C)ccnc3C(C)C)c3nc(-c4c(O)cccc4F)c(F)cc23)C(C)C1	26.9
CCNC(=O)CC1N=C(c2ccc(Cl)cc2)c2cc(OC)ccc2-n2c(C)nnc21 (stereo not given) + C=CC(=O)N1CCN(c2nc(=O)n(-c3c(C)ccnc3C(C)C)c3nc(-c4c(O)cccc4F)c(F)cc23)C(C)C1	35.5
Cn1nccc1Nc1nccc(-c2cc3c(s2)C(C)(C)N(CCN2CCOCC2)C3=O)n1 + C=CC(=O)N1CCN(c2nc(=O)n(-c3c(C)ccnc3C(C)C)c3nc(-c4c(O)cccc4F)c(F)cc23)C(C)C1	48

From PubChem BioAssay AID1963869 (Molecular Pharmacology Branch, DTP, NCI, 2024)
